Where two headings read alike, the source gives them in different places.
Experiments:
Type in all cases: cell-based
[1] = tested on: T47D cells expressing mutant PI3Ka (H1047R); experiment: In vitro cell proliferation, T47D cells (CellTiter-Glo); settings: inhibition of proliferation, read-out: Avg T-47D EC50
Outline: (§1)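 T47D (PI3Kα H1047R; RPMI, 10% FBS, insulin 0.2 units/mL) or SKBR3 (WT PI3Kα; McCoys 5a, 10% FBS) cells seeded at 1,500 cells/well on 10-point compound dilutions, grown 72 h at 37 °C. CellTiter-Glo luminescence; inhibition normalised to 0.1% DMSO and 10 uM alpelisib, EC50 from four-parameter fit.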

[2] = tested on: phosphorylation of AKT (pAKT) in SKBR3 cells express WT PI3Ka; experiment: In vitro cell pAKT (Ser473) HTRF, SKBR3 cells; settings: cellular pAKT
Outline: (§2)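 Cells seeded on plates pre-stamped with 10-point compound dilutions, then grown 6 h at 37 °C (T47D in RPMI/10% FBS/insulin; SKBR3 in McCoy's 5a/10% FBS). Lysates read for pAKT Ser473 by HTRF after overnight antibody incubation. Inhibition normalised to 0.1% DMSO and 10 uM alpelisib; IC50 by four-parameter fit.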

[3] = tested on: phosphorylation of AKT (pAKT) in T47D cells expressing mutant PI3Ka (H1047R); experiment: In vitro cell pAKT (Ser473) HTRF, T47D cells; settings: cellular pAKT, T47D cells, mutant PI3Ka (H1047R), 6 hours, read-out: Avg T-47D IC50
Outline: as §2

[4] = tested on: SKBR3 cells express WT PI3Ka; experiment: In vitro cell proliferation, SKBR3 cells (CellTiter-Glo); settings: inhibition of proliferation
Outline: as §1

EC50 ([1]; Homo sapiens, T47D, 72 h) | IC50 ([2]; Homo sapiens, SK-BR-3, 6 h) | IC50 ([3]; Homo sapiens, T47D, 6 h) | EC50 ([4]; Homo sapiens, SK-BR-3, 72 h) | EC50 ([1]; 72 hours) | IC50 ([2]; 6 hours) | IC50 [3] | EC50 ([4]; 72 hours) | Compound
1 to 500 nM | > 15000 nM | 1 to 500 nM | > 15000 nM | – | – | – | – | COC[C@@H]1CC1c1cc2c([C@@H](C)Nc3ccccc3C(=O)O)cc(C)cc2c(=O)n1C (stereo partly shown) [Example 304]
1 to 500 nM | > 15000 nM | 1 to 500 nM | > 15000 nM | – | – | – | – | Cc1cc([C@@H](C)Nc2ccccc2C(=O)O)c2cc(C3C[C@H]3C)n(C)c(=O)c2c1 (stereo partly shown) [Example 305]
1 to 500 nM | > 15000 nM | 1 to 500 nM | > 15000 nM | – | – | – | – | Cc1cc([C@@H](C)Nc2ccccc2C(=O)O)c2cc(C3C[C@H]3C(C)C)n(C)c(=O)c2c1 (stereo partly shown) [Example 306]
1 to 500 nM | > 15000 nM | 1 to 500 nM | > 15000 nM | – | – | – | – | Cc1cc([C@@H](C)Nc2ccccc2C(=O)O)c2cc(-c3cnc(C4CC4)nc3)n(C)c(=O)c2c1 [Example 307]
1 to 500 nM | > 15000 nM | 1 to 500 nM | > 15000 nM | – | – | – | – | C[C@@H](Nc1ccccc1C(=O)O)c1cc(F)cc2c(=O)n(C)c(N3CCN(CC(F)(F)F)CC3)cc12 [Example 316]
1 to 500 nM | > 15000 nM | 1 to 500 nM | > 15000 nM | – | – | – | – | Cc1cc([C@@H](C)Nc2ccccc2C(=O)O)c2cc(-c3cnc(C(C)(F)F)nc3)n(C)c(=O)c2c1 [Example 317]
1 to 500 nM | > 15000 nM | 1 to 500 nM | > 15000 nM | – | – | – | – | Cc1cc([C@@H](C)Nc2cccc(F)c2C(=O)O)c2cc(-c3cnc(C(C)C)nc3)n(C)c(=O)c2c1 [Example 319]
1 to 500 nM | > 15000 nM | 1 to 500 nM | > 15000 nM | – | – | – | – | Cc1cc([C@@H](C)Nc2cccc(F)c2C(=O)O)c2cc(C3CC3)n(C)c(=O)c2c1 [Example 320]
– | – | – | – | 1 to 500 nM | 2000 to 15000 nM | 1 to 500 nM | > 15000 nM | Cc1cc([C@@H](C)Nc2ccccc2C(=O)O)c2cc(C34CC(c5ccc(F)cc5)(C3)C4)n(C)c(=O)c2c1 [Example 321]
1 to 500 nM | 2000 to 15000 nM | 1 to 500 nM | 2000 to 15000 nM | – | – | – | – | Cc1ncc(F)cc1-c1ncc(-c2cc3c([C@@H](C)Nc4ccccc4C(=O)O)cc(F)cc3c(=O)n2C)cc1F [Example 323]
– | – | – | – | 1 to 500 nM | > 15000 nM | 1 to 500 nM | 2000 to 15000 nM | C[C@@H](Nc1ccccc1C(=O)O)c1cc(F)cc2c(=O)n(C)c(-c3cnc(-c4ccc(F)cc4)nc3)cc12 [Example 324]
– | – | – | – | 1 to 500 nM | 2000 to 15000 nM | 500 to 2000 nM | 2000 to 15000 nM | Cc1cc([C@@H](C)Nc2cccc(F)c2C(=O)O)c2cc(N3CCN(c4cncnc4C)CC3)n(C)c(=O)c2c1 [Example 325]
1 to 500 nM | > 15000 nM | 1 to 500 nM | > 15000 nM | – | – | – | – | Cc1cc([C@@H](C)Nc2cccc(F)c2C(=O)O)c2cc(-c3ccc(C(C)(C)F)nc3)n(C)c(=O)c2c1 [Example 326]
– | – | – | – | 500 to 2000 nM | 2000 to 15000 nM | 500 to 2000 nM | > 15000 nM | Cc1cc([C@@H](C)Nc2ccc(Cl)c(F)c2C(=O)O)c2cc(N3CCN(CC(F)(F)F)CC3)n(C)c(=O)c2c1 [Example 327]
500 to 2000 nM | > 15000 nM | 500 to 2000 nM | 2000 to 15000 nM | – | – | – | – | Cc1cc([C@@H](C)Nc2cccc(F)c2C(=O)O)c2cc(N3CCN(c4cc(C)ncn4)CC3)n(C)c(=O)c2c1 [Example 328]
1 to 500 nM | 2000 to 15000 nM | 1 to 500 nM | 2000 to 15000 nM | – | – | – | – | Cc1cc([C@@H](C)Nc2ccc(Cl)nc2C(=O)O)c2cc(-c3cnc(C(C)C)nc3)n(C)c(=O)c2c1 [Example 329]
500 to 2000 nM | > 15000 nM | 1 to 500 nM | > 15000 nM | – | – | – | – | Cc1cc([C@@H](C)Nc2ccccc2C(=O)O)c2cc(-c3ccc4c(c3)OC(F)(F)O4)n(C)c(=O)c2c1 [Example 330]
1 to 500 nM | > 15000 nM | 1 to 500 nM | > 15000 nM | – | – | – | – | Cc1cc([C@@H](C)Nc2ccccc2C(=O)O)c2cc(-c3ccc(C4(C#N)CC4)nc3)n(C)c(=O)c2c1 [Example 331]
500 to 2000 nM | > 15000 nM | 1 to 500 nM | > 15000 nM | – | – | – | – | Cc1cc([C@@H](C)Nc2ccccc2C(=O)O)c2cc(OCC(F)(F)F)n(C)c(=O)c2c1 [Example 332]
1 to 500 nM | > 15000 nM | 1 to 500 nM | > 15000 nM | – | – | – | – | Cc1cc([C@@H](C)Nc2ccccc2C(=O)O)c2cc(OCC3(C)CC3)n(C)c(=O)c2c1 [Example 333]

Continued, compound first:

Compound | EC50 ([1]; Homo sapiens, T47D, 72 h) | IC50 ([2]; Homo sapiens, SK-BR-3, 6 h) | IC50 ([3]; Homo sapiens, T47D, 6 h) | EC50 ([4]; Homo sapiens, SK-BR-3, 72 h) | EC50 ([1]; 72 hours) | IC50 ([2]; 6 hours) | IC50 [3] | EC50 ([4]; 72 hours)
Cc1cc([C@@H](C)Nc2ccccc2C(=O)O)c2cc(-c3cnn(C(C)(C)C#N)c3)n(C)c(=O)c2c1 [Example 273] | 500 to 2000 nM | > 15000 nM | 1 to 500 nM | > 15000 nM | – | – | – | –
Cc1cc([C@@H](C)Nc2cnsc2C(=O)O)c2cc(N3CCN(CC(F)(F)F)CC3)n(C)c(=O)c2c1 [Example 274] | 2000 to 15000 nM | > 15000 nM | 2000 to 15000 nM | > 15000 nM | – | – | – | –
Cc1cc([C@@H](C)Nc2ccccc2C(=O)O)c2cc(-c3cnc(C)cn3)n(C)c(=O)c2c1 [Example 275] | 1 to 500 nM | > 15000 nM | 1 to 500 nM | > 15000 nM | – | – | – | –
Cc1cc([C@@H](C)Nc2ccccc2C(=O)O)c2cc(-c3cnc(C(C)C)nc3)n(C)c(=O)c2c1 [Example 276] | 1 to 500 nM | > 15000 nM | 1 to 500 nM | > 15000 nM | – | – | – | –
COC(C)(C)c1ncc(-c2cc3c([C@@H](C)Nc4ccccc4C(=O)O)cc(C)cc3c(=O)n2C)cc1F [Example 277] | – | – | – | – | 1 to 500 nM | 2000 to 15000 nM | 1 to 500 nM | 2000 to 15000 nM
Cc1cc([C@@H](C)Nc2ccccc2C(=O)O)c2cc(-c3cnc(OC4CC4)c(F)c3)n(C)c(=O)c2c1 [Example 281] | 1 to 500 nM | > 15000 nM | 1 to 500 nM | > 15000 nM | – | – | – | –
Cc1cc([C@@H](C)Nc2ccccc2C(=O)O)c2cc(-c3cnc(COC(F)(F)F)c(F)c3)n(C)c(=O)c2c1 [Example 282] | 1 to 500 nM | > 15000 nM | 1 to 500 nM | 2000 to 15000 nM | – | – | – | –
Cc1cc([C@@H](C)Nc2ccccc2C(=O)O)c2cc(-c3cnc(C(C)(C)F)nc3)n(C)c(=O)c2c1 [Example 283] | 1 to 500 nM | > 15000 nM | 1 to 500 nM | > 15000 nM | – | – | – | –
CCOc1ncc(-c2cc3c([C@@H](C)Nc4ccccc4C(=O)O)cc(C)cc3c(=O)n2C)s1 [Example 284] | 1 to 500 nM | 2000 to 15000 nM | 1 to 500 nM | > 15000 nM | – | – | – | –
Cc1cc([C@@H](C)Nc2ccccc2C(=O)O)c2c(F)c(N3CCN(CC(F)(F)F)CC3)n(C)c(=O)c2c1 [Example 285] | 1 to 500 nM | 2000 to 15000 nM | 1 to 500 nM | 2000 to 15000 nM | – | – | – | –
Cc1cc([C@@H](C)Nc2ccccc2C(=O)O)c2cc(-c3cnc(C(F)(F)F)nc3)n(C)c(=O)c2c1 [Example 288] | 1 to 500 nM | > 15000 nM | 1 to 500 nM | > 15000 nM | – | – | – | –
Cc1cc([C@@H](C)Nc2ccccc2C(=O)O)c2cc(-c3cnc(CF)c(F)c3)n(C)c(=O)c2c1 [Example 289] | – | – | – | – | 1 to 500 nM | > 15000 nM | 1 to 500 nM | > 15000 nM
Cc1cc([C@@H](C)Nc2ccccc2C(=O)O)c2cc(-c3cnc(C(F)F)c(F)c3)n(C)c(=O)c2c1 [Example 290] | 1 to 500 nM | > 15000 nM | 1 to 500 nM | > 15000 nM | – | – | – | –
Cc1cc([C@@H](C)Nc2ccccc2C(=O)O)c2cc(-c3cnc(C(C)(F)F)c(F)c3)n(C)c(=O)c2c1 [Example 291] | 1 to 500 nM | > 15000 nM | 1 to 500 nM | > 15000 nM | – | – | – | –
Cc1cc([C@@H](C)Nc2ccccc2C(=O)O)c2cc(-c3cnc(C(F)(F)F)c(F)c3)n(C)c(=O)c2c1 [Example 295] | 1 to 500 nM | > 15000 nM | 1 to 500 nM | > 15000 nM | – | – | – | –
Cc1cc([C@@H](C)Nc2ccccc2C(=O)O)c2cc(C3CCN(CC(F)(F)F)CC3)n(C)c(=O)c2c1 [Example 296] | 1 to 500 nM | > 15000 nM | 1 to 500 nM | > 15000 nM | – | – | – | –
Cc1cc([C@@H](C)Nc2cccc(C)c2C(=O)O)c2cc(N3CCN(CC(F)(F)F)CC3)n(C)c(=O)c2c1 [Example 297] | 2000 to 15000 nM | > 15000 nM | 2000 to 15000 nM | > 15000 nM | – | – | – | –
C#Cc1ccc(N[C@H](C)c2cc(C)cc3c(=O)n(C)c(N4CCN(CC(F)(F)F)CC4)cc23)c(C(=O)O)n1 [Example 299] | 1 to 500 nM | 2000 to 15000 nM | 1 to 500 nM | 2000 to 15000 nM | – | – | – | –
COc1cccc(N[C@H](C)c2cc(C)cc3c(=O)n(C)c(N4CCN(CC(F)(F)F)CC4)cc23)c1C(=O)O [Example 300] | 500 to 2000 nM | > 15000 nM | 500 to 2000 nM | > 15000 nM | – | – | – | –
Cc1cc([C@@H](C)Nc2ccccc2C(=O)O)c2cc(C3C[C@H]3C3CC3)n(C)c(=O)c2c1 (stereo partly shown) [Example 303] | 1 to 500 nM | > 15000 nM | 1 to 500 nM | > 15000 nM | – | – | – | –

— patent US20260078103A1, “ISOQUINOLONES AS PI3K INHIBITORS” (OnKure, Inc., priority 2022, published 2026)
